Results from US20210322508A1, “PEPTIDES AND COMPOSITIONS FOR TARGETED TREATMENT AND IMAGING” (SIGNABLOK, INC., priority 2018, published 2021).
Residues, ends and D or L forms follow the SMILES beside them.

Assays:
[1] = tested on: human pancreatic cancer BxPC-3 xenograft; settings: for intratumoral macrophage infiltration (F4/80 staining): 25 mg/kg GF9, 2.5 mg/kg GF9-sSLP/GF9-LPC, 4 mg/kg GA/E31-sSLP where stated; for tumor growth: i.p. 5qw, 25 mg/kg GF9, 2.5 mg/kg GF9-SLP, 4 mg/kg GA/E31-SLP where stated
Procedure: (B) F4/80 staining. Results are expressed as the mean±SEM (n=4 mice per group). *, p<0.05; **, p<0.01, ****, p<0.0001 (versus vehicle). […] Scale bar=200 μm.
Treatment persisted for 31, 29 and 29 days for mice containing AsPC-1, BxPC-3 and Capan-1 tumor xenografts, respectively. Mean tumor volumes are calculated and plotted. All results are expressed as the mean±SEM (n=6 mice per group). On the final day of treatment, tumor volumes were compared between the drug-treated and control groups. **, p<0.01; ***, p<0.001; ****, p<0.0001 (versus vehicle).
As described herein, after tumors in AsPC-1-, BxPC-3- or Capan-1-bearing mice reached a volume of 150-200 mm^3, mice were randomized into groups and intraperitoneally (i.p.) administered once daily 5 times per week (5qw) with either vehicle (black diamonds), GA/E31-dSLP (light gray triangles) or GA/E31-sSLP (white triangles) at indicated doses. Treatment persisted for 31, 29 and 29 days for mice containing AsPC-1, BxPC-3 and Capan-1 tumor xenografts, respectively. Mean tumor volumes are calculated and plotted. All results are expressed as the mean±SEM (n=6 mice per group). On the final day of treatment, tumor volumes were compared between the drug-treated and control groups. **, p<0.01; ***, p<0.001; ****, p<0.0001 (versus vehicle).
Treatment persisted for 31, 29 and 29 days for mice containing AsPC-1, BxPC-3 and Capan-1 tumor xenografts, respectively. Kaplan-Meier survival curves are shown for AsPC-1-, BxPC-3- or Capan-1-bearing mice (n=6 mice per group). **, p<0.01; ***, p<0.001 by log-rank test (versus vehicle).
Serum CSF1, VEGF and IL-6 levels were analyzed on study days 1 and 8 in BxPC-3-bearing mice treated daily 5 times per week (5qw) with either vehicle (black diamonds), GF9 (white circles) or GF9-LPC (black circles) at indicated doses. Results are expressed as the mean±SEM (n=5 mice per group). *, p<0.05; **, p<0.01; ***, p<0.001; ****, p<0.0001 (versus vehicle).

[2] = tested on: C57BL/6 mice with LPS-induced septic shock; assay: LPS-induced septic shock: survival; type: in vivo, mouse; settings: free peptides, at this dose; 30 mg/kg LPS i.p.
Procedure: One hour later, mice received i.p. injection of 30 mg/kg LPS from E. coli 055:B5 (Sigma). In some experiments, all formulations were i.p. administered 1 and 3 h after LPS injection. The viability of mice was examined hourly. Body weights were measured daily. In all of the animal experiments, blood samples were collected via a sub-mandibular (cheek) bleed at 90 min after administration of LPS. Statistical analysis of survival curves was performed by the Kaplan-Meier test. Comparisons were made using two-tailed Student's t test. The production of cytokines in serum was measured by a standard sandwich cytokine ELISA procedure using TNF-alpha, IL-1beta and IL-6 ELISA kits (Pierce Biotechnology, Thermo Scientific, Rockford, Ill.) according to the instructions of the manufacturer. Statistical significances in cytokine analysis ELISA data were determined by two-tailed Student's t test.
Naïve, female C57BL/6 mice at 8 to 10 weeks of age (18 to 21 g) from the Jackson Laboratory were randomly grouped (10 mice per group) and i.p. injected with vehicle or the indicated doses of dexamethasone (DEX), GF9, G-TE21, G-HV21 and G-KV21. One hour later, mice received i.p. injection of 30 mg/kg LPS from E. coli 055:B5 (Sigma). […] Body weights were measured daily. […] Statistical significances in cytokine analysis ELISA data were determined by two-tailed Student's t test.

Compound	intratumoral macrophage infiltration (F4/80 staining) [1]	tumor growth [1]	protection from LPS-induced septic shock / survival [2]
CC(C)C[C@H](NC(=O)[C@H](Cc1ccccc1)NC(=O)CN)C(=O)N[C@@H](CO)C(=O)N[C@@H](CCCCN)C(=O)N[C@@H](CO)C(=O)N[C@@H](CC(C)C)C(=O)N[C@H](C(=O)N[C@@H](Cc1ccccc1)C(=O)NCC(=O)N[C@@H](CCC(=O)O)C(=O)N[C@@H](CCC(=O)O)C(=O)N[C@@H](CC[S+](C)[O-])C(=O)N[C@@H](CCCNC(=N)N)C(=O)N[C@@H](CC(=O)O)C(=O)N[C@@H](CCCNC(=N)N)C(=O)N[C@@H](C)C(=O)N[C@@H](CCCNC(=N)N)C(=O)N[C@@H](C)C(=O)N[C@@H](Cc1c[nH]cn1)C(=O)N[C@H](C(=O)O)C(C)C)C(C)C (stereo partly drawn) [G-HV21] (HELM PEPTIDE1{G.F.L.S.K.S.L.V.F.G.E.E.[CS(=O)CC[C@H](N[*:1])C(=O)[*:2]].R.D.R.A.R.A.H.V}$$$$V2.0)	reduce macrophage infiltration into the tumor	significantly inhibits the tumor growth	protect mice from LPS-induced septic shock and prolongs survival of septic mice
CC(C)C[C@H](NC(=O)[C@H](Cc1ccccc1)NC(=O)CN)C(=O)N[C@@H](CO)C(=O)N[C@@H](CCCCN)C(=O)N[C@@H](CO)C(=O)N[C@@H](CC(C)C)C(=O)N[C@H](C(=O)N[C@@H](Cc1ccccc1)C(=O)N[C@@H](Cc1c[nH]c2ccccc12)C(=O)N[C@@H](CCC(N)=O)C(=O)N[C@@H](CCC(=O)O)C(=O)N[C@@H](CCC(=O)O)C(=O)N[C@@H](CC[S+](C)[O-])C(=O)N[C@@H](CCC(=O)O)C(=O)N[C@@H](CC(C)C)C(=O)N[C@@H](Cc1ccc(O)cc1)C(=O)N[C@@H](CCCNC(=N)N)C(=O)N[C@@H](CCC(N)=O)C(=O)N[C@@H](CCCCN)C(=O)N[C@H](C(=O)O)C(C)C)C(C)C (stereo partly drawn) [G-KV21] (HELM PEPTIDE1{G.F.L.S.K.S.L.V.F.W.Q.E.E.[CS(=O)CC[C@H](N[*:1])C(=O)[*:2]].E.L.Y.R.Q.K.V}$$$$V2.0)	reduce macrophage infiltration into the tumor	significantly inhibits the tumor growth	protect mice from LPS-induced septic shock and prolongs survival of septic mice
